Measurements taken from patent publication US20260337193A1, “SMALL MOLECULE INHIBITORS OF UBIQUITIN SPECIFIC PROTEASE 1 (USP1) AND USES THEREOF” (Insilico Medicine IP Limited, priority 2023, published 2026).

Tests used:
MDA-MB-436 cells = assay: MDA-MB-436 breast cancer cell proliferation assay (CellTiter-Glo); assay type: cell-based; conditions: Homo sapiens, 168 h, 7 days, 37° C.
Description: Example A2: MDA-MB-436 Breast Cancer Cell Culture
MDA-MB-436 cells were grown in Leibovitz's L-15 medium with 10 μg/ml insulin, 16 μg/ml glutathione, 10% FBS. Cells were passaged at subconfluence after trypsinization and maintained in incubators at 37° C. in a humidified atmosphere with 5% CO2.
Example A3: MDA-MB-436 Breast Cancer Cell Proliferation Assay
Cell proliferation was determined using CellTiter-Glo® Luminescent Cell Viability Assay (Promega, #G7573). MDA-MB-436 cells were seeded in 384-well plates and allowed to attach for 24 h. Compounds were added into 384-well plate by ECHO, and incubated at 37° C. in a humidified atmosphere with 5% CO2. After 7 days, CellTiter-Glo® was added into 384 well plates, contents were mixed on an orbital shaker at 400 g for 2 min before centrifuging the plate for 2 min at 1000 rpm. After incubation at RT for 30 min, luminescence was read on envision.

[1] = molecular target: T1, Human recombinant USP1/UAF1 (Homo sapiens, UniProt O94782); assay: Enzymatic assay: USP1/UAF1 deubiquitination of Ubiquitin Rhodamine 110 (kinetic fluorescence); assay type: biochemical; conditions: 2 nM USP1/UAF1, 15 min preincubation at RT, HEPES pH 8.0, 500 nM Ubiquitin Rhodamine 110
T1 construct: purchased R & D E-568-050; host or cells: baculovirus infected Sf21 cells
Description: Example A1: Enzymatic Assay
Human recombinant USP1/UAF1 expressed in baculovirus infected Sf21 cells were used (R & D, E-568-050). Test compound and/or vehicle was incubated with 2 nM of USP1/UAF1 in modified HEPES buffer pH 8.0 for 15 minutes at RT. The reaction was initiated by addition of 500 nM of Ubiquitin Rhodamine 110 (R & D, U-555-050) for kinetic reading. Slope change of fluorescence intensity was read spectrofluorimetrically at 485 nm/535 nm. Dose response of test compounds or reference compound ML-323 was analyzed by nonlinear regression of GraphPad prism software.

T1 sequence (O94782 whole entry): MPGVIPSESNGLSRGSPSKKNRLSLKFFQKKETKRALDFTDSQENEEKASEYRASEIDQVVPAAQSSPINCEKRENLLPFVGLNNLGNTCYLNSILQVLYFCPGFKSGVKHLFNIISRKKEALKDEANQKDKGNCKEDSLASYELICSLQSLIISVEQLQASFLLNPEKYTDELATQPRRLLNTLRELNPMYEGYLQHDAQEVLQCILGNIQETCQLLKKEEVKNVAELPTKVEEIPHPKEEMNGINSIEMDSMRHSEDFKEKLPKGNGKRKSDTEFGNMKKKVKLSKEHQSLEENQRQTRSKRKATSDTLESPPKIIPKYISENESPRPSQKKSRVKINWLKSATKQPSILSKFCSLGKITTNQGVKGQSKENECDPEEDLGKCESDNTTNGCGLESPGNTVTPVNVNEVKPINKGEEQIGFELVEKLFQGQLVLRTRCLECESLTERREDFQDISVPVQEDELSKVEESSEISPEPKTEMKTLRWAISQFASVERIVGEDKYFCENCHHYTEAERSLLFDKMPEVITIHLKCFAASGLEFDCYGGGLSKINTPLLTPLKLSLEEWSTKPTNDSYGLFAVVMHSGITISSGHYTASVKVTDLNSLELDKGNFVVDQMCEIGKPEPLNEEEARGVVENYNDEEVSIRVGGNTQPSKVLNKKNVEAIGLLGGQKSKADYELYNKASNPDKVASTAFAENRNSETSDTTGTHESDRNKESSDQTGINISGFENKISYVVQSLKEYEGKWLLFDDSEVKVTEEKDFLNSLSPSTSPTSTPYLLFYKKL
T1 sequence (Q8TAF3 whole entry partner): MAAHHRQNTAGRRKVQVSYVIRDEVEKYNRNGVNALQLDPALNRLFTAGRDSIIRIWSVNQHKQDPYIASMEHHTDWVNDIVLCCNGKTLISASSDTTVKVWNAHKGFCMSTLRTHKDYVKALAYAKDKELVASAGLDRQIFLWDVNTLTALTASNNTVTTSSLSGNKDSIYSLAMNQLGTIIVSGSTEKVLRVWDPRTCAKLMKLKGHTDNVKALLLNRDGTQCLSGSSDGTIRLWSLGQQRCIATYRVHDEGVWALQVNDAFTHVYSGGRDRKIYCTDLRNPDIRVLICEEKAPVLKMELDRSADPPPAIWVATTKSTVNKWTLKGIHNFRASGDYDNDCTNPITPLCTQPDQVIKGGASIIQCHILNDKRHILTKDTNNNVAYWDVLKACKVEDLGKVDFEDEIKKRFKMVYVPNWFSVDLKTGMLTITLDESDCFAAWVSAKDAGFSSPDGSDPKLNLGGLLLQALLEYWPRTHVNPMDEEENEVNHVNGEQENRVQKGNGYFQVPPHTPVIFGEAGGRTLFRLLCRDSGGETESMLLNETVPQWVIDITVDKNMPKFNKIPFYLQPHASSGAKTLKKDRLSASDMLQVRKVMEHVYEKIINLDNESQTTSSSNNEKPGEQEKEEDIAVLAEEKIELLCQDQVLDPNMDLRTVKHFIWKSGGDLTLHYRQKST

Row | IC50 (MDA-MB-436 cells) | IC50 [1] | Structure (SMILES)
1 | < 50 nM | < 50 nM | COc1ncnc(C2CC2)c1-n1nc(C)c2c1CN(c1ccc(-c3nc(C(F)(F)F)cn3C)c(F)n1)CC2 [Compound 25, 1-(4-cyclopropyl-6-methoxypyrimidin-5-yl)-6-(6-fluoro-5-(1-methyl-4-(trifluoromethyl)-1H-imidazol-2-yl)pyridin-2-yl)-3-methyl-4,5,6,7-tetrahydro-1H-pyrazolo[3,4-c]pyridine]
2 | 50 to 1000 nM | 50 to 1000 nM | COc1ncnc(C2CC2)c1-n1nc(C)c2c1CN(c1ccc(-c3nc(C(F)(F)F)cn3C)nc1)CC2 [Compound 14, 1-(4-cyclopropyl-6-methoxypyrimidin-5-yl)-3-methyl-6-(6-(1-methyl-4-(trifluoromethyl)-1H-imidazol-2-yl)pyridin-3-yl)-4,5,6,7-tetrahydro-1H-pyrazolo[3,4-c]pyridine]
3 | 50 to 1000 nM | 50 to 1000 nM | COc1ncnc(C2CC2)c1-n1nc(C)c2c1CN(c1ncc(-c3nc(C(F)(F)F)cn3C)s1)CC2 [Compound 21, 2-(1-(4-cyclopropyl-6-methoxypyrimidin-5-yl)-3-methyl-1,4,5,7-tetrahydro-6H-pyrazolo[3,4-c]pyridin-6-yl)-5-(1-methyl-4-(trifluoromethyl)-1H-imidazol-2-yl)thiazole]
4 | 50 to 1000 nM | < 50 nM | CCn1cc(C(F)(F)F)nc1-c1cnc(N2CCc3c(C)nn(-c4c(OC)ncnc4C4CC4)c3C2)cn1 [Compound 32, 1-(4-cyclopropyl-6-methoxypyrimidin-5-yl)-6-(5-(1-ethyl-4-(trifluoromethyl)-1H-imidazol-2-yl)pyrazin-2-yl)-3-methyl-4,5,6,7-tetrahydro-1H-pyrazolo[3,4-c]pyridine]
5 | 50 to 1000 nM | 50 to 1000 nM | Cc1nn(-c2c(OC(F)F)ncnc2C2CC2)c2c1CCN(c1ccc(-c3nc(C(F)(F)F)cn3C)cn1)C2 [Compound 24, 1-(4-cyclopropyl-6-(difluoromethoxy)pyrimidin-5-yl)-3-methyl-6-(5-(1-methyl-4-(trifluoromethyl)-1H-imidazol-2-yl)pyridin-2-yl)-4,5,6,7-tetrahydro-1H-pyrazolo[3,4-c]pyridine]
6 | 50 to 1000 nM | 50 to 1000 nM | COc1ncnc(C2CC2)c1-c1nccc2c1CN(c1ccc(-c3nc(C(F)(F)F)cn3C)cn1)CC2 [Compound 2, 8-(4-cyclopropyl-6-methoxypyrimidin-5-yl)-2-(5-(1-methyl-4-(trifluoromethyl)-1H-imidazol-2-yl)pyridin-2-yl)-1,2,3,4-tetrahydro-2,7-naphthyridine]
7 | < 50 nM | < 50 nM | COc1ncnc(C2CC2)c1-n1nc(C)c2c1CN(c1cnc(-c3nc(C(F)(F)F)cn3C)cn1)CC2 [Compound 15, 1-(4-cyclopropyl-6-methoxypyrimidin-5-yl)-3-methyl-6-(5-(1-methyl-4-(trifluoromethyl)-1H-imidazol-2-yl)pyrazin-2-yl)-4,5,6,7-tetrahydro-1H-pyrazolo[3,4-c]pyridine]
8 | 50 to 1000 nM | 50 to 1000 nM | COc1ncnc(C2CC2)c1-n1nc(C)c2c1CN(c1ncc(-c3nc(C(F)(F)F)cn3C)cn1)CC2 [Compound 16, 1-(4-cyclopropyl-6-methoxypyrimidin-5-yl)-3-methyl-6-(5-(1-methyl-4-(trifluoromethyl)-1H-imidazol-2-yl)pyrimidin-2-yl)-4,5,6,7-tetrahydro-1H-pyrazolo[3,4-c]pyridine]
9 | < 50 nM | < 50 nM | Cc1nn(-c2ccccc2C(C)C)c2c1CCN(c1ccc(-c3nc(C(F)(F)F)cn3C)cn1)C2 [Compound 19, 1-(2-isopropylphenyl)-3-methyl-6-(5-(1-methyl-4-(trifluoromethyl)-1H-imidazol-2-yl)pyridin-2-yl)-4,5,6,7-tetrahydro-1H-pyrazolo[3,4-c]pyridine]
10 | 1000 to 10000 nM | 50 to 1000 nM | Cc1nn(-c2ccccc2C(C)C)c2c1CN(c1ncc(-c3nc(C(F)(F)F)cn3C)s1)C2 [Compound 22, 2-(1-(2-isopropylphenyl)-3-methyl-4,6-dihydropyrrolo[3,4-c]pyrazol-5(1H)-yl)-5-(1-methyl-4-(trifluoromethyl)-1H-imidazol-2-yl)thiazole]
11 | – | 50 to 1000 nM | CC(C)c1ncccc1-c1nn(C)c2c1CN(c1ncc(-c3nc(C(F)(F)F)cn3C)s1)C2 [Compound 9, 2-(3-(2-isopropylpyridin-3-yl)-1-methyl-4,6-dihydropyrrolo[3,4-c]pyrazol-5(1H)-yl)-5-(1-methyl-4-(trifluoromethyl)-1H-imidazol-2-yl)thiazole]
12 | 50 to 1000 nM | 50 to 1000 nM | COc1ncnc(C2CC2)c1-n1nc(C(F)(F)F)c2c1CN(c1ccc(-c3nc(C(F)(F)F)cn3C)cn1)CC2 [Compound 23, 1-(4-cyclopropyl-6-methoxypyrimidin-5-yl)-6-(5-(1-methyl-4-(trifluoromethyl)-1H-imidazol-2-yl)pyridin-2-yl)-3-(trifluoromethyl)-4,5,6,7-tetrahydro-1H-pyrazolo[3,4-c]pyridine]
13 | 50 to 1000 nM | 50 to 1000 nM | COc1ncnc(C2CC2)c1-n1nc(C)c2c1CN(c1ccc(-c3nc(C(F)(F)F)cn3C(C)C)cn1)CC2 [Compound 13, 1-(4-cyclopropyl-6-methoxypyrimidin-5-yl)-6-(5-(1-isopropyl-4-(trifluoromethyl)-1H-imidazol-2-yl)pyridin-2-yl)-3-methyl-4,5,6,7-tetrahydro-1H-pyrazolo[3,4-c]pyridine]
14 | < 50 nM | < 50 nM | Cc1cnn(C(C)C)c1-n1nc(C)c2c1CN(c1ccc(-c3nc(C(F)(F)F)cn3C)cn1)CC2 [Compound 27, 1-(1-isopropyl-4-methyl-1H-pyrazol-5-yl)-3-methyl-6-(5-(1-methyl-4-(trifluoromethyl)-1H-imidazol-2-yl)pyridin-2-yl)-4,5,6,7-tetrahydro-1H-pyrazolo[3,4-c]pyridine]
15 | 50 to 1000 nM | 50 to 1000 nM | COc1ncnc(C2CC2)c1-n1nc(C)c2c1CN(c1ccc(-n3nc(C(F)(F)F)cc3C)cn1)CC2 [Compound 20, 1-(4-cyclopropyl-6-methoxypyrimidin-5-yl)-3-methyl-6-(5-(5-methyl-3-(trifluoromethyl)-1H-pyrazol-1-yl)pyridin-2-yl)-4,5,6,7-tetrahydro-1H-pyrazolo[3,4-c]pyridine]
16 | 50 to 1000 nM | 50 to 1000 nM | COc1ncnc(C2CC2)c1-c1nn(C)c2c1CN(c1cnc(-c3nc(C(F)(F)F)cn3C)s1)C2 [Compound 10, 5-(3-(4-cyclopropyl-6-methoxypyrimidin-5-yl)-1-methyl-4,6-dihydropyrrolo[3,4-c]pyrazol-5(1H)-yl)-2-(1-methyl-4-(trifluoromethyl)-1H-imidazol-2-yl)thiazole]
17 | < 50 nM | < 50 nM | COc1ncnc(C2CC2)c1-n1nc(Cl)c2c1CN(c1ccc(-c3nc(C(F)(F)F)cn3C)cn1)CC2 [Compound 28, 3-chloro-1-(4-cyclopropyl-6-methoxypyrimidin-5-yl)-6-(5-(1-methyl-4-(trifluoromethyl)-1H-imidazol-2-yl)pyridin-2-yl)-4,5,6,7-tetrahydro-1H-pyrazolo[3,4-c]pyridine]
18 | < 50 nM | 50 to 1000 nM | COc1ncnc(C2CC2)c1-n1nc(C)c2c1CN(c1ccc(-c3nc(C(F)(F)F)cn3C)cn1)CC2 [Compound 11, 1-(4-cyclopropyl-6-methoxypyrimidin-5-yl)-3-methyl-6-(5-(1-methyl-4-(trifluoromethyl)-1H-imidazol-2-yl)pyridin-2-yl)-4,5,6,7-tetrahydro-1H-pyrazolo[3,4-c]pyridine]
19 | < 50 nM | < 50 nM | COc1ncnc(C2CC2)c1-n1nc(C)c2c1CN(c1ccc(-c3nc(C(F)(F)F)cn3C)c(F)c1)CC2 [Compound 17, 1-(4-cyclopropyl-6-methoxypyrimidin-5-yl)-6-(3-fluoro-4-(1-methyl-4-(trifluoromethyl)-1H-imidazol-2-yl)phenyl)-3-methyl-4,5,6,7-tetrahydro-1H-pyrazolo[3,4-c]pyridine]
20 | – | 50 to 1000 nM | COc1ncnc(C2CC2)c1-c1nn(C)c2c1CN(c1ccc(-c3nc(C(F)(F)F)cn3C)cc1)C2 [Compound 7, 3-(4-cyclopropyl-6-methoxypyrimidin-5-yl)-1-methyl-5-(4-(1-methyl-4-(trifluoromethyl)-1H-imidazol-2-yl)phenyl)-1,4,5,6-tetrahydropyrrolo[3,4-c]pyrazole]
21 | – | 1000 to 10000 nM | COc1ncnc(C2CC2)c1-c1nn(C)c2c1CN(c1ccc(-c3nc(C(F)(F)F)cn3C)cn1)C2 [Compound 5, 3-(4-cyclopropyl-6-methoxypyrimidin-5-yl)-1-methyl-5-(5-(1-methyl-4-(trifluoromethyl)-1H-imidazol-2-yl)pyridin-2-yl)-1,4,5,6-tetrahydropyrrolo[3,4-c]pyrazole]
22 | – | 1000 to 10000 nM | COc1ncnc(C2CC2)c1-c1nn(C)c2c1CN(c1ccc(-c3nc(C(F)(F)F)cn3C)nc1)C2 [Compound 6, 3-(4-cyclopropyl-6-methoxypyrimidin-5-yl)-1-methyl-5-(6-(1-methyl-4-(trifluoromethyl)-1H-imidazol-2-yl)pyridin-3-yl)-1,4,5,6-tetrahydropyrrolo[3,4-c]pyrazole]
